{
  "source": "ChEMBL document CHEMBL5728170",
  "about": "“Substituted pyrrolizine compounds and uses thereof” (2020)",
  "assay": "HBV DNA Quantification Assay: A HepG2 cell line overexpressing the HBV virus attachment receptor sodium-taurocholate cotransporting polypeptide (NTCP) was grown to confluency in DMEM growth medium, Dulbecco's Modified Eagle Medium without sodium pyruvate (Life Technologies, Rockville, Md.) supplemented with 10% FBS (Thermo Scientific, Waltham, Md.), 1% penicillin/streptomycin (Life Technologies, Rockville, Md.) and 2 mM L-glutamine (Life Technologies, Rockville, Md.) in T175 flasks. Cells were infected with HBV AD38 viral particles (Texcell, Frederick, USA) at 4000 genome equivalents per cell. After allowing viral infection to take place for 4 days, the infected cells were harvested from the flasks by trypsinization, washed twice with OptiMEM (Life Technologies, Rockville, Md.) and re-suspended in DMEM containing 2% FBS and 1% DMSO at a density of 0.25E6 cells/ml. Infected cells were seeded on 384 well collagen coated plates (Greiner, Austria) at a density of 20,000 cells/well containing serially diluted compounds of the present disclosure or DMSO (0.5%) in a final volume of 80 μl. The assay plates were incubated for a period of 5 days and the antiviral activity of the test compounds were assayed by detecting the presence of HBV DNA in the culture supernatant using the QuantiGene™ 2.0 nucleic acid quantification kit (Affymetrix, Santa Clara, Calif.).The culture supernatant was harvested and treated with lysis buffer containing Proteinase K (Affymetrix, Santa Clara, Calif.). The supernatant was incubated with HBV viral DNA specific probes (Affymetrix, Santa Clara, Calif.) for 30 minutes at 55° C. This was followed by addition of 0.2M NaOH for 30 minutes at room temperature to denature the DNA, followed by addition of Neutralization buffer (Affymetrix, Santa Clara, Calif.). The resulting lysed and neutralized supernatant was then added to QuantiGene™ 2.0 384 well plates coated with capture oligonucleotides and incubated overnight at 55° C. The HBV specific probe set consists of Capture Extender oligonucleotides (CE's) and blocking probes. Following the overnight incubation, the wells were incubated for one hour sequentially with a Pre-Amplifier, Amplifier and Labeled probes conjugated to alkaline phosphatase with a wash step between incubations. After the final wash step, the alkaline phosphatase substrate (Luminol APS5) was added and the resulting luminescence signal was read in an EnVision Multilabel Plate Reader (PerkinElmer, Santa Clara, Calif.). The EC50 values were calculated from the fit of the dose-response curves to a four-parameter equation.",
  "data": [
    {"smiles": "CC(NC(=O)C(=O)c1c(Cl)c(C(=O)Nc2ccc(F)c(C#N)c2)n2c1CCC2)C(F)(F)F", "note": "(centres undefined)", "values": [
      {"measurement": "EC50", "result": 27.1, "unit": "nM"}
    ]},
    {"smiles": "Cc1c(C(=O)C(=O)NC2(C(=O)N3CC4(C3)CN(S(C)(=O)=O)C4)CC(F)(F)C2)c2n(c1C(=O)Nc1ccc(F)c(C#N)c1)CCC2", "values": [
      {"measurement": "EC50", "result": 112, "unit": "nM"}
    ]},
    {"smiles": "Cc1c(C(=O)C(=O)NC2(C(=O)N3CC4(COC4)C3)CC(F)(F)C2)c2n(c1C(=O)Nc1ccc(F)c(C#N)c1)CCC2", "values": [
      {"measurement": "EC50", "result": 32.3, "unit": "nM"}
    ]},
    {"smiles": "CNC(=O)C1(NC(=O)C(=O)c2c(C)c(C(=O)OC)n3c2C[C@H]2C[C@H]23)CC(F)(F)C1", "values": [
      {"measurement": "EC50", "result": 8.8, "unit": "nM"}
    ]}
  ]
}
